As usually defined, the IC50 is the concentration that gives 50% inhibition. Low readings indicate inhibition by little substance, high ones a need for much substance. Broadly, the inhibition is the change of the read-out against control, counted positive when it falls. Low readings indicate a weak effect, high ones a strong effect.

The target in test [1] is Dual specificity mitogen-activated protein kinase kinase 1 (Homo sapiens, UniProt Q02750). Kind of test: Inhibitory activity against MEK.
In test [2] the test system is HT-29. Put plainly: Antiproliferative activity against human tumor HT29 cell line. The class given is functional.
For test [3], the system named is COLO 205. Kind of test: Antiproliferative activity against human tumor Colo205 cell line. The class given is functional.
The target in test [4] is Vascular endothelial growth factor receptor 2 (Homo sapiens) (UniProt P35968). Put plainly: Inhibitory activity against VEGFR2 upto 50 uM.

Where only a bound is given, the exact number is not on record here.

Sequence of Dual specificity mitogen-activated protein kinase kinase 1 (Q02750 whole entry): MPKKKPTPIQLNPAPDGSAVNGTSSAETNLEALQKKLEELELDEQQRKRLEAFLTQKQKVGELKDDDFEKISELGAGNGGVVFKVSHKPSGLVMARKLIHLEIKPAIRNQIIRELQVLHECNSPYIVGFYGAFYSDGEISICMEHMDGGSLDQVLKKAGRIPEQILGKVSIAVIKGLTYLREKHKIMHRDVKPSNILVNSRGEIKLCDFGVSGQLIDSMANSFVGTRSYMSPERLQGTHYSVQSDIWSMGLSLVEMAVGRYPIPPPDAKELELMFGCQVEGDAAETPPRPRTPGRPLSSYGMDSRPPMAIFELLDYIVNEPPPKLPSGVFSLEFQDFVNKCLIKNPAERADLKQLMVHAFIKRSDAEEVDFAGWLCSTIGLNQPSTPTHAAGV
Sequence of Vascular endothelial growth factor receptor 2 (Homo sapiens) (P35968 whole entry): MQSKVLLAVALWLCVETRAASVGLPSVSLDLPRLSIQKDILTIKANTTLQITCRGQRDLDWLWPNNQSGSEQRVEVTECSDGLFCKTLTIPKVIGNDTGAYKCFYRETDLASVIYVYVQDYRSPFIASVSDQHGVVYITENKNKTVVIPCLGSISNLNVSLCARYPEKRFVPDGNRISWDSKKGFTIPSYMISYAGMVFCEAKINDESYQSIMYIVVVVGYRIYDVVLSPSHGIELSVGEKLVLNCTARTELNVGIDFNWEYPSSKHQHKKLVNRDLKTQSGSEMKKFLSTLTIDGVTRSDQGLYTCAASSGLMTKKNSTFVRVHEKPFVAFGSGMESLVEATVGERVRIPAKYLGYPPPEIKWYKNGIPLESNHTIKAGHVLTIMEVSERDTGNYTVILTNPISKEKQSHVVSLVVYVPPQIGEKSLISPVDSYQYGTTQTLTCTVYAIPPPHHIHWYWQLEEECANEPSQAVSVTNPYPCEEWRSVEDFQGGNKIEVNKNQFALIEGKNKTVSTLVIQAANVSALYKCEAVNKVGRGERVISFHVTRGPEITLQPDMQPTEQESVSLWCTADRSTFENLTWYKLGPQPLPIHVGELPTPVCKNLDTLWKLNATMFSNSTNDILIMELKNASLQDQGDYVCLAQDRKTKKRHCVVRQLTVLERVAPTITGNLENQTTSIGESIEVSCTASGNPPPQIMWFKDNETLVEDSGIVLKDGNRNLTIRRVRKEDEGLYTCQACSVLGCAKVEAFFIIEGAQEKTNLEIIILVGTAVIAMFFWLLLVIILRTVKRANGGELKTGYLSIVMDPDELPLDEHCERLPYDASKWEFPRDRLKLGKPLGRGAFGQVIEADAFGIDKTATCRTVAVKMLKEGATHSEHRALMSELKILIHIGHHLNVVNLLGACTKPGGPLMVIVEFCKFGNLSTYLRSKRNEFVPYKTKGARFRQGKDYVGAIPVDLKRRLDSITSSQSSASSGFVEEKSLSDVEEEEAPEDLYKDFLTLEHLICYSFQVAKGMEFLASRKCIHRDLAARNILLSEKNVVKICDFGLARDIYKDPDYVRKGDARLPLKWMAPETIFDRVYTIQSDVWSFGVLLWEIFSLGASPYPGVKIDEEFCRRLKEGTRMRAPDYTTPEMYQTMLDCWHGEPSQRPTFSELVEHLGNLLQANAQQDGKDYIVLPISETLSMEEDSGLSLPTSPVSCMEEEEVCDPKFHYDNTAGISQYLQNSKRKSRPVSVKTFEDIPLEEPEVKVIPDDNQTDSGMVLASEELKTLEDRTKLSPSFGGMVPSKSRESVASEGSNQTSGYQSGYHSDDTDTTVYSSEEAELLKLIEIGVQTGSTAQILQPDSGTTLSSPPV

In test [1], `Cc1c(C(=O)O)cn2ncc(CN)c(Nc3ccc(Oc4ccccc4)cc3)c12` came in with an IC50 of over 25000 nM.

`CCOC(=O)c1cn2ncc(C#N)c(Nc3ccc(-c4ccccc4)cc3)c2c1C` had an IC50 in test [1] of over 25000 nM.

`Cc1c(C(=O)O)cn2ncc(C#N)c(Nc3ccc(Oc4ccccc4)cc3)c12` displayed an IC50 in test [1] of 147 nM.

In test [1], `COC(=O)Nc1cn2ncc(C#N)c(Nc3ccc(Oc4ccccc4)cc3)c2c1C` displayed an IC50 of 23 nM. In test [2], this compound yielded an Activity of 7.64 µM.

Take `CC(=O)NCc1cnn2cc(C(=O)O)c(C)c2c1Nc1ccc(Oc2ccccc2)cc1`: in test [1], the IC50 was over 25000 nM.

On to `Cc1c(N)cn2ncc(C#N)c(Nc3ccc(Oc4ccccc4)cc3)c12`, for which, in test [1], the IC50 was 190 nM. This counts as sub-micromolar.

In the case of `COc1cccc(Oc2ccc(Nc3c(C#N)cnn4cc(NC(=O)OCCN5CCOCC5)c(C)c34)cc2)c1`, the IC50 in test [1] came out at 76 nM. The Activity in test [2] was 2.35 µM; in test [3] it was 0.72 µM.

On to `Cc1c(NC(=O)c2ccccc2)cn2ncc(C#N)c(Nc3ccc(Oc4ccccc4)cc3)c12`, for which the IC50 in test [1] turned out to be 42 nM. In addition, the Activity in test [2] amounted to 2.13 µM; in test [3] it was 2.42 µM.

`Cc1c(NS(=O)(=O)c2ccccc2)cn2ncc(C#N)c(Nc3ccc(Oc4ccccc4)cc3)c12`: half-maximal inhibition in test [1] (IC50) was put at 14600 nM. In other words, the double-digit micromolar range.

Turning to `CCOC(=O)c1cn2ncc(C#N)c(Nc3ccc(OCc4ccccc4)cc3)c2c1C`, the IC50 in test [1] was over 25000 nM.

Regarding `Cc1ccn2ncc(C#N)c(Nc3ccc(Oc4ccccc4)cc3)c12`, the midpoint of inhibition in test [1], the IC50, lay at 241 nM. The Activity in test [2] and in test [3] was over 10 µM in each case.

With `CCOCc1c(C(=O)OCC)cn2ncc(C#N)c(Nc3ccc(Oc4ccccc4)cc3)c12`, in test [1], inhibition was half-maximal at 331 nM (IC50).

Consider `CCOC(=O)c1cn2ncc(C#N)c(Nc3ccc(Oc4ccccc4)cc3)c2c1CO`, for which 203 nM corresponded to half-maximal inhibition in test [1] (IC50).

Take `COc1ccccc1Oc1ccc(Nc2c(C#N)cnn3cc(NC(=O)NCCN4CCOCC4)c(C)c23)cc1`: in test [1], the IC50 turned out to be 24 nM. This IC50 is about 8.5-fold lower than that of the compound before.

On to `Cc1c(-c2nc3ccccc3[nH]2)cn2ncc(C#N)c(Nc3ccc(Oc4ccccc4)cc3)c12`, for which inhibition in test [1] was half-maximal at 168 nM (IC50).

For the compound `Cc1c(NC(=O)NCCN2CCOCC2)cn2ncc(C#N)c(Nc3ccc(Oc4ccccc4)cc3)c12`, the IC50 in test [1] was 36 nM. The compound further returned an inhibition in test [4] of under 5%. In addition, the Activity in test [2] was found to be 0.86 µM; in test [3] it was 3.9 µM.

In turn, `CC(=O)Nc1cccc(C(=O)Nc2cn3ncc(C#N)c(Nc4ccc(Oc5ccccc5)cc4)c3c2C)c1` showed an IC50 in test [1] of 14 nM. The Activity in test [2] was determined as 1.34 µM; in test [3], 1.86 µM.

In turn, `CCOC(=O)c1cn2ncnc(Nc3ccc(Oc4ccccc4)cc3)c2c1C` returned an IC50 in test [1] of 3470 nM. This lies in the single-digit micromolar range.

With `COc1ccccc1Oc1ccc(Nc2c(C#N)cnn3cc(NC(=O)OCCN4CCOCC4)c(C)c23)cc1`, the IC50 in test [1] came to 48 nM. The figures for the Activity in test [2] and in test [3] were 3.78 µM and 2.06 µM, respectively.

`CCOC(=O)c1cn2ncc(C#N)c(Nc3ccc(Oc4ccccc4)cc3)c2c1COCCOC` registered an IC50 in test [1] of 566 nM. This counts as sub-micromolar.

Regarding `COc1cccc(Oc2ccc(Nc3c(C#N)cnn4cc(NC(=O)NCCN5CCOCC5)c(C)c34)cc2)c1`, in test [1], the IC50 was found to be 29 nM.

Consider `CCOC(=O)c1cn2ncc(C#N)c(Nc3ccc(Oc4ccc(Cl)cc4)cc3)c2c1C`, for which the IC50 in test [1] amounted to 642 nM. Against the preceding compound, the IC50 is about 22-fold higher.

Compound `CCOC(=O)c1cn2ncc(C#N)c(Nc3ccc(C(=O)c4ccccc4)cc3)c2c1C` yielded an IC50 in test [1] of 1110 nM.

For `Cc1c(C(=O)NCCN2CCOCC2)cn2ncc(C#N)c(Nc3ccc(Oc4ccccc4)cc3)c12`, in test [1], it took 386 nM to reach half-maximal inhibition (IC50). This IC50 is about 2.9-fold lower than that of the compound before.

For the compound `Cc1c(OCCN2CCOCC2)cn2ncc(C#N)c(Nc3ccc(Oc4ccccc4)cc3)c12`, in test [1], half-maximal inhibition (IC50) required 521 nM.

On to `CCOC(=O)c1cn2ncc(C#N)c(Nc3ccccc3)c2c1C`, for which the IC50 in test [1] was over 25000 nM.

`CCOC(=O)c1cn2ncc(C#N)c(NCc3ccc(Oc4ccccc4)cc3)c2c1C` showed an IC50 in test [1] of over 25000 nM.

In turn, `CCOC(=O)c1cn2ncc(C#N)c(Nc3ccc(Nc4ccccc4)cc3)c2c1C` came in with an IC50 in test [1] of 2320 nM. That is a single-digit micromolar value.

In turn, `CCOC(=O)c1cn2ncc(C#N)c(Oc3ccc(Oc4ccccc4)cc3)c2c1C` yielded an IC50 in test [1] of 5420 nM.

`Cc1c(C(C)(C)O)cn2ncc(C#N)c(Nc3ccc(Oc4ccccc4)cc3)c12`: the IC50 in test [1] was over 25000 nM.

With `CCOC(=O)c1cn2ncc(C#N)c(Nc3ccc(Cc4ccccc4)cc3)c2c1C`, in test [1], half-maximal inhibition (IC50) required 68 nM.

`Cc1c(NC(=O)NCCN2CCOCC2)cn2ncc(C#N)c(Nc3ccc(Oc4ccccc4F)cc3)c12`: inhibition in test [1] was half-maximal at 33 nM (IC50).

In turn, `Cc1c(NC(=O)OCCN2CCOCC2)cn2ncc(C#N)c(Nc3ccc(Oc4ccccc4)cc3)c12` returned an IC50 in test [1] of 58 nM. In addition, the inhibition in test [4] was under 5%. In addition, the figures for the Activity in test [2] and in test [3] were 3.76 µM and 2.88 µM, respectively.

As to `CNC(=O)Nc1cn2ncc(C#N)c(Nc3ccc(Oc4ccccc4)cc3)c2c1C`, the IC50 in test [1] stood at 18 nM. The compound further yielded an Activity in test [2] of 7.38 µM.

With `Cc1c(C(=O)O)cn2ncc(CNS(C)(=O)=O)c(Nc3ccc(Oc4ccccc4)cc3)c12`, the IC50 in test [1] was over 25000 nM.

Values taken from ChEMBL document CHEMBL1148629, “Pyrrolopyridazine MEK inhibitors” (Bioorg Med Chem Lett, 2006).
